In patent US20260223848A1, “METHOD OF INCREASING SUGAR PRODUCTION FROM SUGARCANE” (CORTEVA AGRISCIENCE LLC, priority 2021, published 2026):

Assays:
Assay type in all cases: in vivo
[1] = system: ratoon sugarcane; experiment: Ratoon sugarcane control field studies; conditions: for % Control: post application, 4 to 6 leaves, 50 to 60 cm
Experimental: In order to study the activity of Haloxyfop-P-methyl as possible herbicide for ratoon sugarcane control, field studies were carried out. Haloxyfop-P-methyl was tested at 124; 248; 373; 620 and 1240 g ai/ha plus mineral oil at 0.5% v/v and compared to key standard, as glyphosate (Glizmax Prime®) at 2160 g ae/ha. Trials were sprayed postemergence with 4 to 6 leaves or 50 to 60 cm of ratoon sugarcane regrowth and assessed percentage of control at 14; 30; 45 and 60 days after application (DAA).

[2] = system: sugarcane; experiment: Sugarcane ripening field studies, florpyrauxifen-benzyl and haloxyfop-P-methyl
[3] = system: sugarcane; experiment: Sugarcane ripening field studies, halauxifen-methyl plus haloxyfop-P-methyl; conditions: six field studies, 30 days after application, rate g ai/ha: halauxifen-methyl 2.16, mixture 27 + 2.16, haloxyfop-P-methyl 27, sulfometuron 15, trinexapac 250
[4] = 14.5 g ai/ha, single application 50 L/ha 60 days before harvest, 30 DAA
[5] = 14.5 g ai/ha, single application 50 L/ha 60 days before harvest, 45 DAA
[6] = 50 g ai/ha, single application 50 L/ha 60 days before harvest, 30 DAA
[7] = 50 g ai/ha, single application 50 L/ha 60 days before harvest, 45 DAA
[8] = 100 g ai/ha, single application 50 L/ha 60 days before harvest, 30 DAA
[9] = 100 g ai/ha, single application 50 L/ha 60 days before harvest, 45 DAA

COC(=O)[C@@H](C)Oc1ccc(Oc2ncc(C(F)(F)F)cc2Cl)cc1 [Haloxyfop-P-methyl, haloxyfop-P-methyl]
% Control ([1]; 124 g ai/ha, 14 DAA): 60.5% | % Control ([1]; 124 g ai/ha, 30 DAA): 86.5% | % Control ([1]; 124 g ai/ha, 45 DAA): 91.5% | % Control ([1]; 124 g ai/ha, 60 DAA): 89.8% | % Control ([1]; 248 g ai/ha, 14 DAA): 67.2% | % Control ([1]; 248 g ai/ha, 30 DAA): 88.7% | % Control ([1]; 248 g ai/ha, 45 DAA): 92.0% | % Control ([1]; 248 g ai/ha, 60 DAA): 90.8% | % Control ([1]; 373 g ai/ha, 14 DAA): 68.3% | % Control ([1]; 373 g ai/ha, 30 DAA): 91.0% | % Control ([1]; 373 g ai/ha, 45 DAA): 93.5% | % Control ([1]; 373 g ai/ha, 60 DAA): 92.2% | % Control ([1]; 620 g ai/ha, 14 DAA): 71.8% | % Control ([1]; 620 g ai/ha, 30 DAA): 94.7% | % Control ([1]; 620 g ai/ha, 45 DAA): 95.2% | % Control ([1]; 620 g ai/ha, 60 DAA): 94.8% | % Control ([1]; 1240 g ai/ha, 14 DAA): 74.5% | % Control ([1]; 1240 g ai/ha, 30 DAA): 95.2% | % Control ([1]; 1240 g ai/ha, 45 DAA): 96.3% | % Control ([1]; 1240 g ai/ha, 60 DAA): 95.5% | ratoon sugarcane control ([1]; rates from 373 to 1240 g ai/ha at 30 DAA): more than 90% | Gain POL [2, 4]: 3.3% | Gain Purity [2, 4]: 13.0% | Gain TRS [2, 4]: 27.8 kg/ton | Gain POL [2, 5]: 6.7% | Gain Purity [2, 5]: 18.3% | Gain TRS [2, 5]: 49.6 kg/ton | Gain POL [2, 6]: 2.8% | Gain Purity [2, 6]: 8.1% | Gain TRS [2, 6]: 23.7 kg/ton | Gain POL [2, 7]: 4.4% | Gain Purity [2, 7]: 10.3% | Gain TRS [2, 7]: 39.9 kg/ton | Gain POL [2, 8]: 3.2% | Gain Purity [2, 8]: 7.2% | Gain TRS [2, 8]: 28.6 kg/ton | Gain POL [2, 9]: 4.0% | Gain Purity [2, 9]: 8.8% | Gain TRS [2, 9]: 36.7 kg/ton | Gain Fiber ([2]; 30 days after application, rate g ai/ha: haloxyfop-P-methyl 27, florpyrauxifen-benzyl 2.2, mixture 27 + 2.2, sulfometuron 15, trinexapac 250, untreated 0.6): 0.4% | Gain POL ([2]; 30 days after application, rate g ai/ha: haloxyfop-P-methyl 27, florpyrauxifen-benzyl 2.2, mixture 27 + 2.2, sulfometuron 15, trinexapac 250, untreated 2.8): 2.6% | Gain Purity ([2]; 30 days after application, rate g ai/ha: haloxyfop-P-methyl 27, florpyrauxifen-benzyl 2.2, mixture 27 + 2.2, sulfometuron 15, trinexapac 250, untreated 7.2): 6.1% | Gain TRS ([2]; 30 days after application, rate g ai/ha: haloxyfop-P-methyl 27, florpyrauxifen-benzyl 2.2, mixture 27 + 2.2, sulfometuron 15, trinexapac 250, untreated 25.2): 23.7 kg/ton | Gain Fiber ([2]; 45 days after application, rate g ai/ha: haloxyfop-P-methyl 27, florpyrauxifen-benzyl 2.2, mixture 27 + 2.2, sulfometuron 15, trinexapac 250, untreated 1.2): 0.1% | Gain POL ([2]; 45 days after application, rate g ai/ha: haloxyfop-P-methyl 27, florpyrauxifen-benzyl 2.2, mixture 27 + 2.2, sulfometuron 15, trinexapac 250, untreated 4.2): 4.4% | Gain Purity ([2]; 45 days after application, rate g ai/ha: haloxyfop-P-methyl 27, florpyrauxifen-benzyl 2.2, mixture 27 + 2.2, sulfometuron 15, trinexapac 250, untreated 7.7): 10.3% | Gain TRS ([2]; 45 days after application, rate g ai/ha: haloxyfop-P-methyl 27, florpyrauxifen-benzyl 2.2, mixture 27 + 2.2, sulfometuron 15, trinexapac 250, untreated 38.4): 39.9 kg/ton | Gain Fiber ([3]; untreated 0.5): 0.7% | Gain POL ([3]; untreated 2.7): 2.9% | Gain Purity ([3]; untreated 6.8): 6.6% | Gain TRS ([3]; untreated 23.4): 24.7 kg/ton
